Results taken from patent publication US11517617B2, “Methods and compositions for preventing influenza infection” (THE UNIVERSITY OF MELBOURNE, priority 2017, dated 2022).

System: memory CD8^+ T cells within PBMCs
Format: cell-based, human

Sequence	cross-reactivity of CD8^+ T cells after in vitro expansion with the peptide	recognition of IBV-derived variant by IAV-expanded CD8^+ T cells
YEDLRVLSA (Influenza B virus) [BNP394-401]	could not expand CD8^+ T cells	to a lesser extent
FEDLRVLSA (Influenza A virus) [NP338-345]	recognizing both IAV- and IBV-derived peptides	
